Read-outs that look alike come from different tables or passages of the source.

What all share (experiment): Kinase selectivity, P33-radiolabeled assay
What all share (format): biochemical
What all share (conditions): 10 μM ATP

In one assay the target is T1, DLK/MAP3K12 (Homo sapiens, UniProt Q12852).
T1 construct: purchased Reaction Biology Corp
T1 sequence (Q12852 1-859): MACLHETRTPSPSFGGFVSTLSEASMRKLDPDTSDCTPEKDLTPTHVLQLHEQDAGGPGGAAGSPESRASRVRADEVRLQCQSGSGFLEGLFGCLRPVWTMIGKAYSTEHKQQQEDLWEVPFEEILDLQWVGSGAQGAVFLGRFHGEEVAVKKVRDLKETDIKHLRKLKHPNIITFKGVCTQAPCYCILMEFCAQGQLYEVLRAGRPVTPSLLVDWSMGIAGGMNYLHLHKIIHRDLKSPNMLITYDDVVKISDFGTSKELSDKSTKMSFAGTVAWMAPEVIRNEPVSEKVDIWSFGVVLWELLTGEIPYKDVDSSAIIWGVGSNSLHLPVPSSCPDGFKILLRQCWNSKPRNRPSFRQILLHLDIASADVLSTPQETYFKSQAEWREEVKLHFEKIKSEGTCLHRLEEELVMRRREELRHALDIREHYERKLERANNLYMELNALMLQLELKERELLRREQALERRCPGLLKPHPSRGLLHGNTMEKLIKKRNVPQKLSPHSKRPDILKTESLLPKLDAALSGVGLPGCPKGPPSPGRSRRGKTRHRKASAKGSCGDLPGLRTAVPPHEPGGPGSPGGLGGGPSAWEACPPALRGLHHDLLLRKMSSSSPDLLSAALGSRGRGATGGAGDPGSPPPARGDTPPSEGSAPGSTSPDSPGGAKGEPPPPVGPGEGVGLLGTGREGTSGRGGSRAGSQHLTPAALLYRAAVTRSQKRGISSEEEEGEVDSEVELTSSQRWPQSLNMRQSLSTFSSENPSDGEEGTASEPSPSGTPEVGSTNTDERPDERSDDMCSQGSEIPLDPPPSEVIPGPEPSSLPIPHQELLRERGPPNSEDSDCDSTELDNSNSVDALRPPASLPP
In short, it runs like this: (§1)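 ATP at 10 μM; test article at 10 μM, single point, two replicates. Output is activity as % of DMSO.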

Another assay has as its target T2, EGFR (Homo sapiens, UniProt P00533).
T2 construct: purchased Reaction Biology Corp
In short, it runs like this:
as §1

The target in the next assay is T3, VRK1 (Homo sapiens, UniProt Q99986).
T3 construct: purchased Reaction Biology Corp
T3 sequence (Q99986 1-396): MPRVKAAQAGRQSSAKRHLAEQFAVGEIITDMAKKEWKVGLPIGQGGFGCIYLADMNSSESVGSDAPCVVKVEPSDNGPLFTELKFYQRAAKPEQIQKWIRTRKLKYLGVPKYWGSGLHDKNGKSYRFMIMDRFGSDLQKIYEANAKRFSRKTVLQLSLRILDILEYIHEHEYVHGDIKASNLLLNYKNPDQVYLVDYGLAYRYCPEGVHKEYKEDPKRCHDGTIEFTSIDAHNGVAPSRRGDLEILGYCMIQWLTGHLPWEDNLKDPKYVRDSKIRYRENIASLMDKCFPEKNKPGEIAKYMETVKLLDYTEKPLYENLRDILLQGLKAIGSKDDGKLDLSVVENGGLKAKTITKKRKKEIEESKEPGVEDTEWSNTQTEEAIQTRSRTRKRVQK
In short, it runs like this: as §1

A further assay concerns the target T4, MAPKAPK3 (Homo sapiens, UniProt Q16644).
T4 construct: purchased Reaction Biology Corp
The gist of the method:
as §1

Another assay addresses T5, STK32B/YANK2 (Homo sapiens, UniProt Q9NY57).
T5 construct: purchased Reaction Biology Corp
The gist of the method: as §1

In a further assay the target is T6, CHK1 (Homo sapiens, UniProt O14757).
T6 construct: purchased Reaction Biology Corp
T6 sequence (O14757 1-476): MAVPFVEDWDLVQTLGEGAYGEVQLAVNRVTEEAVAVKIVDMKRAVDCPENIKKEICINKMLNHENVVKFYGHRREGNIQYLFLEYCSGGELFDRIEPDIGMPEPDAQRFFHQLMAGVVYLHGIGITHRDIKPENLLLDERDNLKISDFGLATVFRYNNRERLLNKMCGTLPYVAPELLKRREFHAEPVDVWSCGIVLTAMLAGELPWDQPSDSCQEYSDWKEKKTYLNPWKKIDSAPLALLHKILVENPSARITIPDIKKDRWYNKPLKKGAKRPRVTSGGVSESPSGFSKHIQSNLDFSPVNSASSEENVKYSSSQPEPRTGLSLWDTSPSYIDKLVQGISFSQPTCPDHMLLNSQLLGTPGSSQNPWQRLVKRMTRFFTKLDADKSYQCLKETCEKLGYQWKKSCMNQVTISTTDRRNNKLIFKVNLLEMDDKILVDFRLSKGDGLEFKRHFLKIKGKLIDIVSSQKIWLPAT
In short, it runs like this: as §1

Another assay concerns the target T7, FGR (Homo sapiens, UniProt P09769).
T7 construct: purchased Reaction Biology Corp
The gist of the method: as §1

The mark [1] stands for this setting: read-out: % Enzyme Activity (relative to DMSO controls) AVG.
The mark [2] stands for this setting: read-out: % Enzyme Activity (relative to DMSO controls) Data 1.
Where [3] appears, read: read-out: % Enzyme Activity (relative to DMSO controls) Data 2.

T2 sequence (P00533 25-1210): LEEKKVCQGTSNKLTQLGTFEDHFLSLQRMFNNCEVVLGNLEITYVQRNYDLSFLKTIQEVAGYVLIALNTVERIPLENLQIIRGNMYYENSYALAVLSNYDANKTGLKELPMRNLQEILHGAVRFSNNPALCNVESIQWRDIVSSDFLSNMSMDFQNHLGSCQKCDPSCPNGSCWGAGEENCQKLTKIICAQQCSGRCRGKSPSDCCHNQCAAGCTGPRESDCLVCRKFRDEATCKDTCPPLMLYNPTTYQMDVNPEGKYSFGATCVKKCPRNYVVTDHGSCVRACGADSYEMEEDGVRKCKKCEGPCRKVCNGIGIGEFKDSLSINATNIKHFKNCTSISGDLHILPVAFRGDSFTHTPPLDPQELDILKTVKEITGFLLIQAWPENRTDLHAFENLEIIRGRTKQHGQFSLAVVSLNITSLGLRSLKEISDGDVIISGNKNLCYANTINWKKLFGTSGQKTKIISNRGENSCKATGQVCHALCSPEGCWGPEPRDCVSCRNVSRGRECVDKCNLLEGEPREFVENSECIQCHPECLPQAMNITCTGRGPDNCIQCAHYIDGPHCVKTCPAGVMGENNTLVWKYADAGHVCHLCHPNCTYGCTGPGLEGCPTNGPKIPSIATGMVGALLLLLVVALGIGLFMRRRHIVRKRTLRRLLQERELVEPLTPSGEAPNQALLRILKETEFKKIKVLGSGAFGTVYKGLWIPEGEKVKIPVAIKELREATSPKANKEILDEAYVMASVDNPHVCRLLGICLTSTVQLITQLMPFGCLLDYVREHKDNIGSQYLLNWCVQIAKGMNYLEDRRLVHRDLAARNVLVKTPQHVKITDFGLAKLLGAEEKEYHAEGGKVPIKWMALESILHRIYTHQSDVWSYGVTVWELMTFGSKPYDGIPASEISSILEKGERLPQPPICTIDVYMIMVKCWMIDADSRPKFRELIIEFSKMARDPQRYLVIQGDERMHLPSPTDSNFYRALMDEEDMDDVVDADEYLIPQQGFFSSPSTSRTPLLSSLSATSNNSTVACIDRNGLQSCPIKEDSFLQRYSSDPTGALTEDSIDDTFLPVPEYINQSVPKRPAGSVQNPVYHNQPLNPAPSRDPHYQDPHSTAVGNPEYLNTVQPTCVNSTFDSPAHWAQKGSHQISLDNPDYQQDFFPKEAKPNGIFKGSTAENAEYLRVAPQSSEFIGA
T4 sequence (Q16644 whole entry): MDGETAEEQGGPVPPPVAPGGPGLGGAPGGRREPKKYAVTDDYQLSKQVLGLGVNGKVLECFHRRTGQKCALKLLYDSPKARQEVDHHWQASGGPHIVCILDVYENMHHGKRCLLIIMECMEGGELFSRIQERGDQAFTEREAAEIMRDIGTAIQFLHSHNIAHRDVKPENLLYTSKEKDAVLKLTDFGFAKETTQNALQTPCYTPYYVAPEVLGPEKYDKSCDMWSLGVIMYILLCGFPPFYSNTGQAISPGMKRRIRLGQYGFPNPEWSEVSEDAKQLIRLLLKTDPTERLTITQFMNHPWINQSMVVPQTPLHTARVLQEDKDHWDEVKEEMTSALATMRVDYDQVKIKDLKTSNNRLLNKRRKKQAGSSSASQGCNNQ
T5 sequence (Q9NY57 whole entry): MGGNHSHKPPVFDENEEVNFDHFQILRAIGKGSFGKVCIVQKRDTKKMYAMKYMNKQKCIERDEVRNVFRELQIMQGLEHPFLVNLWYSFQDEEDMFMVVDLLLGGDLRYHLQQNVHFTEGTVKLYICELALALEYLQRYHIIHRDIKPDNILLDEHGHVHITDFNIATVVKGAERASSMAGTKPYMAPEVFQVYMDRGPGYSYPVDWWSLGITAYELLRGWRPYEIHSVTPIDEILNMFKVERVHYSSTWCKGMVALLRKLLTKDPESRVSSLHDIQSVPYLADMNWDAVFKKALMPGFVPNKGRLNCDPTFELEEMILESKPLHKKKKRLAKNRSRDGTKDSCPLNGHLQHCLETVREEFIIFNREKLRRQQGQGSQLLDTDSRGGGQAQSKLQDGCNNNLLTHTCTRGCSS
T7 sequence (P09769 whole entry): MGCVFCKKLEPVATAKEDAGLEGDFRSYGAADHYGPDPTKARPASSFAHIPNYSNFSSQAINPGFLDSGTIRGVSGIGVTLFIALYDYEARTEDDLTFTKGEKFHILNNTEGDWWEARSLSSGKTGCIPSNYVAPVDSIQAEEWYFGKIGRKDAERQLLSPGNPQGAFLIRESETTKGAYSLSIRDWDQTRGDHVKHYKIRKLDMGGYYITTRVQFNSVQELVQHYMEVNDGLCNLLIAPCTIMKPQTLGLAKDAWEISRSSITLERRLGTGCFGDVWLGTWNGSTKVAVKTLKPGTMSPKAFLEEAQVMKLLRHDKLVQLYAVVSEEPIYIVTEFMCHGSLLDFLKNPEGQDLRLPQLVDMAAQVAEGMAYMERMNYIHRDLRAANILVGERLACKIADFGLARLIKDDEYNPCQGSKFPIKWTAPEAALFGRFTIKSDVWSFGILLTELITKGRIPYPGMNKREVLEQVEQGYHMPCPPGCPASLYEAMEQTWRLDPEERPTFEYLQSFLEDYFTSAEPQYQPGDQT

As for `CC(C)(C)C(=O)N1N=CC[C@H]1c1ccccc1` [GSK′963], the remaining activity at 10 µM at DLK/MAP3K12 (setting [1]) is 104%; at DLK/MAP3K12 (setting [2]), 106%; on DLK/MAP3K12 (setting [3]), 102%; at EGFR (setting [1]), 106%; on EGFR (setting [2]), 105%; on EGFR (setting [3]) it was 108%. Further, the remaining activity at 10 µM on VRK1 (setting [1]) was found to be 78.2%; at VRK1 (setting [2]), 80.9%; on VRK1 (setting [3]) it was 75.4%; at MAPKAPK3 (setting [1]) it was 103%; at MAPKAPK3 (setting [2]), 104%; at MAPKAPK3 (setting [3]), 103%. The remaining activity at 10 µM on STK32B/YANK2 (setting [1]) worked out at 98.5%; on STK32B/YANK2 (setting [2]) it was 98.6%; on STK32B/YANK2 (setting [3]), 98.4%; on CHK1 (setting [1]), 115%; on CHK1 (setting [2]) it was 122%; at CHK1 (setting [3]) it was 109%. Moreover, the remaining activity at 10 µM at FGR (setting [1]) is 107%; at FGR (setting [2]) it was 106%; at FGR (setting [3]) it was 108%.

For the origin of these results see PMC4979471 (Cell Death Discovery, 2015).
